Data from patent US6444832B1, “Amino alcohol derivatives, method of producing said derivatives and medicaments containing them” (priority 1995, dated 2002).

System: primary osteoblastic cells of foetal rat calvariae
Test: DNA synthesis assay in primary cultures of osteoblasts from fetal rat calvariae (3H-thymidine incorporation)
Assay type: cell-based
Conditions: 1 μg/ml; 24 hours incubation, methyl-3H-thymidine during the last 3 hours; medium containing BSA control = 100%
Protocol: Compounds of formula (I) were examined in a DNA synthesis assay in primary cultures of osteoblasts from fetal rat calvariae. The experiments were carried out in accordance with Pfeilschifter et al., Endocrinology 126, 703 (1990).
Primary osteoblasts were isolated from foetal rat calvariae by sequential digestion with collagenase. In this process 5 cell fractions were obtained. A pool from the cell fractions 3-5 were cultured in vitro. The cells were cultured in an incubator at a relative air humidity of 95%, a CO2 content of 5% and a temperature of 37° C. The test substances were examined in the cultures of the first, second or third cell passage. For the examinations the cells were sown at a cell count of 7×10^3 cells (in 100 μl culture medium)/well in microtitre plates at least 76 hours before applying the test substances. MEM Dulbecco (plus 4.5 g/l glucose plus 3.7 g/l NaHCO3 without glutamine) was used as the culture medium to which 5% foetal calf serum (FCS) and […] penicillin/streptomycin had been added. Immediately before addition of the test substances to the cell culture the medium was replaced by 150 μl medium which contained 1 mg/ml bovine serum albumin (BSA) instead of FCS. Test substances were added at the desired concentrations to the medium containing BSA. TGFβ1 (transforming growth factor β1) at concentrations of 0.1-0.2 ng/ml were also examined as a positive control. Three determinations were carried out per (positive) control or substance concentration. The cell cultures were incubated for 24 hours with test substances, a thymidine probe (1 μCi methyl-^3H-thymidine in 20 μl PBS solution) being additionally present during the last 3 hours. At the end of the incubation period the cell cultures were washed three times with 0.9% saline solution and subsequently admixed with 100 μl liquid scintillator each time (OptiPhase Supermix TM®). Afterwards the radioactivity incorporated into the DNA was measured in cpm in a liquid scintillation counter (1450 MicroBeta®). Cell cultures which had only received medium containing BSA served as controls (100%).

Compared with `CC/C=C\C/C=C\C/C=C\CCCCCCCC(=O)N[C@@H](CO)CCCC` (stereo in doubt) [Example 9], `CCCCC/C=C\C/C=C\CCCCCCCC(=O)N[C@@H](CO)CCCC` (stereo in doubt) [Example 10] is higher in “Rate of DNA synthesis of primary osteoblastic cells of foetal rat calvariae in percent compared to the control (=100%)” value: 367% for the first, 475% for the second.

Compared with `CCCCC/C=C\C/C=C\CCCCCCCC(=O)N[C@H](CC)CO` (stereo in doubt) [Example 27], `CCCCC/C=C\C/C=C\CCCCCCCC(=O)NC(CO)CCCC` (stereo not drawn) [Example 24] is lower in “Rate of DNA synthesis of primary osteoblastic cells of foetal rat calvariae in percent compared to the control (=100%)” value: 252% for the first, 223% for the second.

First: CCCCCC/C=C\CCCCCCCC(=O)NC(CO)CCCC (stereo not drawn) [Example 11]
Second: CCCCCCCC/C=C/CCCCCCCC(=O)NC(CO)CCCC (stereo not drawn) [Example 21]
The “Rate of DNA synthesis of primary osteoblastic cells of foetal rat calvariae in percent compared to the control (=100%)” value of the first is higher: 191% for the first, 188% for the second.

First: CCCC/C=C\CCCCCCCC(=O)NC(CO)CCCC (stereo not drawn) [Example 19]
Second: CCCCCCCC/C=C\CCCCCCCC(=O)NC(CO)CCCC (stereo not drawn) [Example 26]
The “Rate of DNA synthesis of primary osteoblastic cells of foetal rat calvariae in percent compared to the control (=100%)” value of the first is higher: 298% for the first, 296% for the second.

With `CCCCCCCCC#CCCCCCCCC(=O)NC(CO)CCCC` (stereo not drawn) [Example 20] the “Rate of DNA synthesis of primary osteoblastic cells of foetal rat calvariae in percent compared to the control (=100%)” value was 250%.
